This passage reports Activity results from ChEMBL document CHEMBL1926531, “Butamben derivatives enhance BMP-2-stimulated commitment of C2C12 cells into osteoblasts with induction of voltage-gated potassium channel expression” (Bioorg Med Chem Lett, 2011).

Assay [1] deals with T1, Bone morphogenetic protein 2 (Homo sapiens) (UniProt P12643).
T1 sequence (whole entry): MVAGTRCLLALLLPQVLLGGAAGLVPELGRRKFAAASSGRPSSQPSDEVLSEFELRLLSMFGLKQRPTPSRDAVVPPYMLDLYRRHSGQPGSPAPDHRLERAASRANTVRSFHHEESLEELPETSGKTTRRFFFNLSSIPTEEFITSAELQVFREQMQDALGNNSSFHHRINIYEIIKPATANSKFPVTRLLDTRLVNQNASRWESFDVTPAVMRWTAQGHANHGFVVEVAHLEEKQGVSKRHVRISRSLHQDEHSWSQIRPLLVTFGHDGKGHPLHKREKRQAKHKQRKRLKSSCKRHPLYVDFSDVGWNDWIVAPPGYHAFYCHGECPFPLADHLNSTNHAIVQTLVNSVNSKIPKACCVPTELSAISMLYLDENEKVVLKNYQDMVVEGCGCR
The assay is described as follows: Increase in human recombinant BMP2-mediated osteoblastogenesis in mouse C2C12 cells assessed as induction of alkaline phosphatase activity after 6 days. It counts as cell-based.

Assay [2] concerns the target T1, Bone morphogenetic protein 2 (Homo sapiens). The assay is described as follows: Increase in BMP2-mediated osteoblastogenesis in mouse C2C12 cells assessed as increase in BMP4 mRNA level at 10 uM by SYBR-based RT-PCR. It counts as cell-based.
For assay [3] the target is unchanged. In words: Increase in BMP2-mediated osteoblastogenesis in mouse C2C12 cells assessed as increase in BMP6 mRNA level at 10 uM by SYBR-based RT-PCR. It counts as cell-based.
The target is the same in assay [4]. The assay is described as follows: Increase in BMP2-mediated osteoblastogenesis in mouse C2C12 cells assessed as increase in BMP7 mRNA level at 10 uM by SYBR-based RT-PCR. It counts as cell-based.
The target is the same in assay [5]. In words: Increase in BMP2-mediated osteoblastogenesis in mouse C2C12 cells assessed as increase in BMP9 mRNA level at 10 uM by SYBR-based RT-PCR. It counts as cell-based.
Assay [6] shares this target. In words: Increase in BMP2-mediated osteoblastogenesis in mouse C2C12 cells assessed as increase in OCN mRNA level at 10 uM by SYBR-based RT-PCR. The assay is classed as cell-based.
In a further assay the test system is C2C12. In words: Induction of alkaline phosphatase activity in mouse C2C12 cells. The assay is classed as cell-based.
The target of assay [7] is T1, Bone morphogenetic protein 2 (Homo sapiens). In words: Increase in BMP2-mediated osteoblastogenesis assessed as increase in BMP2 protein level in mouse C2C12 cells at 10 uM by Western blot analysis. The assay is classed as cell-based.
Assay [8] has the same target. The assay is described as follows: Increase in BMP2-mediated osteoblastogenesis assessed as increase in BMP7 protein level in mouse C2C12 cells at 10 uM by Western blot analysis. It counts as cell-based.
Assay [9] shares this target. The assay is described as follows: Increase in human recombinant BMP2-mediated osteoblastogenesis assessed as increase in alkaline phosphatase mRNA expression in mouse C2C12 at 10 uM co-treated with BMP2 antagonist noggin on day 3 measured after 6 days by SYBR-based RT-PCR. The assay is classed as functional.
For assay [10] the target is unchanged. The assay is described as follows: Increase in human recombinant BMP2-mediated osteoblastogenesis assessed as increase in alkaline phosphatase activity in mouse C2C12 at 10 uM co-treated with BMP2 antagonist noggin on day 3 measured after 6 days. The assay is classed as functional.
Assay [11] has the same target. The assay is described as follows: Increase in human recombinant BMP2-mediated osteoblastogenesis assessed as increase in alkaline phosphatase mRNA expression in mouse C2C12 cells at 10 uM treated with BMP2 antagonist noggin on day 4 post compound challenge measured after 6 days by SYBR-based RT-PCR. The assay is classed as functional, cell-based.
Assay [12] has the same target. The assay is described as follows: Increase in human recombinant BMP2-mediated osteoblastogenesis assessed as increase in alkaline phosphatase activity in mouse C2C12 cells at 10 uM treated with BMP2 antagonist on day 4 post compound challenge measured after 6 days. The assay is classed as functional, cell-based.
For assay [13] the target is unchanged. In words: Increase in BMP2-mediated osteoblastogenesis assessed as increase in nuclear translocation of Smad at 10 uM by Western blot analysis. On the technique in general: A western blot detects proteins with antibodies after separation by electrophoresis.
For assay [14] the target is unchanged. The assay is described as follows: Increase in BMP2-mediated osteoblastogenesis assessed as increase in phosphorylation of Smad at 10 uM by Western blot analysis.
The target is the same in assay [15]. In words: Increase in BMP2-mediated osteoblastogenesis assessed as increase in phosphorylated of Smad level in nucleus at 10 uM after 6 hrs by Western blot analysis.
Assay [16] shares this target. In words: Increase in BMP2-mediated osteoblastogenesis assessed as increase in Kv1.1 mRNA expression at 10 uM by RT-PCR analysis.
Assay [17] shares this target. In words: Increase in BMP2-mediated osteoblastogenesis assessed as increase in Kv1.5 mRNA expression at 10 uM after 3 days by RT-PCR analysis.
Assay [18] has the same target. The assay is described as follows: Increase in BMP2-mediated osteoblastogenesis assessed as increase in Kv4.2 mRNA expression at 10 uM after 6 hrs after 3 days by RT-PCR analysis.
The target is the same in assay [19]. The assay is described as follows: Increase in BMP2-mediated osteoblastogenesis assessed as increase in Kv4.3 mRNA expression at 10 uM after 6 hrs after 3 days by RT-PCR analysis.

Calls of active or inactive are those of the source. The calls are words filed in the database; no cut-off is given here.

For the compound `CCCCOC(=O)c1ccc(N)cc1`, the Activity entry in assay [1] was “Dose-dependent effect”. The outcome in [2], in [3], in [4], in assay [5] and in [6] was Active. In the assay with C2C12, the outcome was inactive.
Turning to `CC(C)OC(=O)c1ccc(N)cc1`, the Activity entry in assay [1] was “Dose-dependent effect”. In addition, the result in assay [2], in [3], in assay [4], in assay [5] and in assay [6] was Active. Also, the outcome in the assay with C2C12 was inactive.
Consider `COC(=O)c1ccc(N)cc1`, for which the Activity result in assay [1] is “Dose-dependent effect”. Moreover, the result in assay [2], in assay [3], in assay [4], in [5] and in assay [6] was Active. In the assay on C2C12, the outcome was inactive.
As to `CCCCOC(=O)c1ccc(NC(C)=O)cc1`, the Activity entry in assay [1] was “Dose-dependent effect”. For the same compound, the result in [2], in assay [3], in assay [4], in assay [5], in assay [6] and in assay [7] was Active. In addition, the result in [8], in assay [13], in [14], in assay [15], in [16] and in assay [17] was Active. Also, the outcome in [18] and in assay [19] was Active. Also, the result (in the assay with C2C12; in assay [9]; in assay [10]; in assay [11]; in assay [12]) was inactive.
